Assay results taken from patent US20080176810A1, “Use of 3, 4', 5-Trihydroxy-Stilbene-3-Beta-D-glucoside in Prepartion of Medicines For Treating and/or Preventing Ischemic Heart Disease” (SHENZHEN NEPTUNUS PHARMACEUTICAL CO., LTD., priority 2004, published 2008).

Test system: myocardial infarction induced by ligation of coronary artery
Assay: Canine model of myocardial infarction induced by ligation of coronary artery, iv
Format: in vivo, dogs
Settings: for sum of ST (ΣST) segment elevation, x ± s: 0 min before, c3-c8 5,15,30,60,90,120 min after administration; for IZ/LV / IZ/WT: N-BT staining; for CK after administration / CK before administration / LDH after administration / LDH before administration: serum
Procedure: Drugs were medicated with intravenous injection. The volume of the drug administered was the same as that of normal saline for the animal model group of ischemic reperfusion with administrative volume of 2 ml/kg.
After weighing, the animals were anesthetised with pentobarbital sodium iv at the dose of 30 mg/kg. Tracheal intubation was performed and SC-M5 anesthesia respirator (manufactured by Shanghai Medical Instrument Factory) was connected for mechanical ventilation (16˜18 per min with tidal volume of 350˜550 ml) after thoracotomy at the fourth intercostal space of left sternal border. With exposure of the heart, the pericardium was cut open to make pericardium hammock. The coronary artery was dissociated from between the first and second branches of left anterior descending coronary artery, underneath which passed through silk threads for two-step ligation. On surface of heart were placed 30-point epicardial leads, to which four limbs were connected through needle-electrodes, which in turn were connected to Powerlab/8s (AD Instruments) with a multichannel switcher. Harris Two-step Ligation was performed. Two minutes before first ligation, 5 mg/kg lidocaine was given by femoral intravenous injection to prevent arrhythmia. While performing ligation, a steel wire of 1 mm in diameter was inserted into the first knot so as to be ligated together with the coronary artery. Afterward, the steel-wire was pulled out and then 30 min later, the second knot was made to complete the ligation.
The epicardial electrogram 10 min after completing the ligation was recorded as the control value before drug administration. Later, test drug was given by femoral intravenous injection while the negative control group was given solvent of same volume. Constant dripping was completed within 30 min for all groups with a constant flow pump (SH-88AB Controllable Intravenous Injector made by Quanzhou Lizhong Electronic Medical Instrument Factory). After completion of the constant dripping, changes of epcardial electrogram at 5, 15, 30, 60, 90 and 120 min after administration were recorded respectively. The number of ST segment elevation or depression to more than 2 mV and sum of total value ST segment elevation (ΣST) were applied as the indexes for observation of changes of epcardial electrogram and to calculate the percentage of the weight of infarct area to the weight of whole heart or to the weight of left ventricle. 3 ml of blood from right ventricle was sampled before ligation and 2 hrs after administration. After centrifuged at 3000 rpm for 15 min, serum was taken to detect lactate dehydrogenase (LDH) and serum creatine kinase (CK). Method according to instruction of the LDH and CK Assay kit (batch no: 20020523, Nanjing Jiancheng Bioengineering Institute) (ENR: U90625, Randox Company, UK) was adopted for detection. The performance was with a ultraviolet/visible range spectrophotometer of UV751GD type (Shanghai analytical apparatus Factory).

## 3,4′,5-trihydroxy-stilbene-3-β-D-glucoside [TSG]
TSG 2.5 mg/kg
  CK B/A: 2.54 ± 0.27
  LDH B/A: 2.28 ± 0.21
  IZ/LV: 21.68 ± 1.88 %
  IZ/WT: 11.70 ± 0.93 %
  CK after administration: 446.6 ± 39.4 IU/L
  CK before administration: 176.7 ± 18.8 IU/L
  LDH after administration: 823.3 ± 186.3 IU/L
  LDH before administration: 359.7 ± 70.5 IU/L
TSG 2.5 mg/kg iv, 0 min before administration
  sum of ST (ΣST) segment elevation, x ± s: 154.5 ± 60.4 mV
TSG 2.5 mg/kg iv, 5 min after administration
  sum of ST (ΣST) segment elevation, x ± s: 154.7 ± 55.0 mV
TSG 2.5 mg/kg iv, 30 min after administration
  sum of ST (ΣST) segment elevation, x ± s: 129.2 ± 57.7 mV
TSG 2.5 mg/kg iv, 60 min after administration
  sum of ST (ΣST) segment elevation, x ± s: 122.7 ± 59.6 mV
TSG 2.5 mg/kg iv, 90 min after administration
  sum of ST (ΣST) segment elevation, x ± s: 128.3 ± 55.1 mV
TSG 5.0 mg/kg
  CK B/A: 1.98 ± 0.38
  LDH B/A: 2.09 ± 0.16
  IZ/LV: 15.25 ± 1.41 %
  IZ/WT: 9.03 ± 1.16 %
  CK after administration: 356.2 ± 64.8 IU/L
  CK before administration: 180.8 ± 13.2 IU/L
  LDH after administration: 587.1 ± 170.6 IU/L
  LDH before administration: 281.2 ± 80.9 IU/L
TSG 5.0 mg/kg iv, 0 min before administration
  sum of ST (ΣST) segment elevation, x ± s: 153.8 ± 50.7 mV
TSG 5.0 mg/kg iv, 5 min after administration
  sum of ST (ΣST) segment elevation, x ± s: 148.0 ± 39.9 mV
TSG 5.0 mg/kg iv, 30 min after administration
  sum of ST (ΣST) segment elevation, x ± s: 116.2 ± 53.7 mV
TSG 5.0 mg/kg iv, 60 min after administration
  sum of ST (ΣST) segment elevation, x ± s: 105.3 ± 53.6 mV
TSG 5.0 mg/kg iv, 90 min after administration
  sum of ST (ΣST) segment elevation, x ± s: 103.8 ± 54.1 mV
TSG 10 mg/kg
  CK B/A: 1.74 ± 0.37
  LDH B/A: 1.99 ± 0.14
  IZ/LV: 13.92 ± 1.32 %
  IZ/WT: 8.65 ± 1.11 %
  CK after administration: 299.5 ± 63.9 IU/L
  CK before administration: 172.7 ± 11.1 IU/L
  LDH after administration: 551.6 ± 131.3 IU/L
  LDH before administration: 279.3 ± 70.8 IU/L
TSG 10 mg/kg iv, 0 min before administration
  sum of ST (ΣST) segment elevation, x ± s: 155.0 ± 46.4 mV
TSG 10 mg/kg iv, 5 min after administration
  sum of ST (ΣST) segment elevation, x ± s: 151.7 ± 35.6 mV
TSG 10 mg/kg iv, 30 min after administration
  sum of ST (ΣST) segment elevation, x ± s: 115.2 ± 50.9 mV
TSG 10 mg/kg iv, 60 min after administration
  sum of ST (ΣST) segment elevation, x ± s: 104.7 ± 45.5 mV
TSG 10 mg/kg iv, 90 min after administration
  sum of ST (ΣST) segment elevation, x ± s: 102.0 ± 51.8 mV
